Experimental data reported in ChEMBL document CHEMBL3885881, “DrugMatrix”.

Species on record: Rattus norvegicus
Test: DrugMatrix - Regimen: Daily Repeat
Format: toxicity, organism-based, Sprague-Dawley
Design: regimen Daily Repeat, gender Male, age 6-8 weeks
Conditions: in vivo, po, route oral GAVAGE, vehicle 100 % WATER; for ABSOLUTE BASOPHIL / ABSOLUTE EOSINOPHIL / ABSOLUTE LYMPHOCYTE / ABSOLUTE MONOCYTE / ABSOLUTE SEGMENTED NEUTROPHIL / BASOPHIL / EOSINOPHIL / ERYTHROCYTE COUNT / HEMATOCRIT / HEMOGLOBIN / LEUKOCYTE COUNT / LYMPHOCYTE / MEAN CORPUSCULAR HEMOGLOBIN / MEAN CORPUSCULAR HEMOGLOBIN CONCENTRATION / MEAN CORPUSCULAR VOLUME / MONOCYTE / NEUTROPHIL / NUCLEATED RED BLOOD CELLS / PLATELET COUNT: tissue Blood; for ALANINE AMINOTRANSFERASE / ALBUMIN / ALKALINE PHOSPHATASE / ASPARTATE AMINOTRANSFERASE / BLOOD UREA NITROGEN / CARBON DIOXIDE / CHLORIDE / CHOLESTEROL / CREATINE PHOSPHOKINASE / CREATININE / GLUCOSE / LACTATE DEHYDROGENASE / LIPASE / PHOSPHORUS / POTASSIUM / SODIUM / TOTAL BILIRUBIN / TOTAL PROTEIN / URIC ACID: tissue Plasma
[1] = 10 mg/kg, 120 h, dose level Low, time 5 day
[2] = 280 mg/kg, 72 h, dose level High, time 3 day
[3] = 280 mg/kg, 120 h, dose level High, time 5 day

## NNc1nncc2ccccc12 [HYDRALAZINE]
[1]
  ABSOLUTE BASOPHIL: 0 CELLS/uL
  ABSOLUTE EOSINOPHIL: 0 CELLS/uL
  ABSOLUTE LYMPHOCYTE: 12743.33 CELLS/uL
  ABSOLUTE MONOCYTE: 327.33 CELLS/uL
  ABSOLUTE SEGMENTED NEUTROPHIL: 1062.67 CELLS/uL
  BASOPHIL: 0%
  EOSINOPHIL: 0%
  ERYTHROCYTE COUNT: 5.27 x10E6/uL
  HEMATOCRIT: 32.27%
  HEMOGLOBIN: 13.07 G/DL
  LEUKOCYTE COUNT: 14.13 x10E3/uL
  LYMPHOCYTE: 90%
  MEAN CORPUSCULAR HEMOGLOBIN: 24.8 pg
  MEAN CORPUSCULAR HEMOGLOBIN CONCENTRATION: 40.53 G/DL
  MEAN CORPUSCULAR VOLUME: 61.17 fL
  MONOCYTE: 2.33%
  NEUTROPHIL: 7.67%
  NUCLEATED RED BLOOD CELLS: 0 /100WBC
  PLATELET COUNT: 1239 x10E3/uL
  ALANINE AMINOTRANSFERASE: 50 u/L
  ALBUMIN: 4.2 G/DL
  ALKALINE PHOSPHATASE: 452.67 u/L
  ASPARTATE AMINOTRANSFERASE: 79.67 u/L
  BLOOD UREA NITROGEN: 16.33 mg/dL
  CARBON DIOXIDE: 29.67 mmol/L
  CHLORIDE: 100.33 MEQ/L
  CHOLESTEROL: 68 mg/dL
  CREATINE PHOSPHOKINASE: 219.67 u/L
  CREATININE: 0.15 mg/dL
  GLUCOSE: 131.33 mg/dL
  LACTATE DEHYDROGENASE: 184 u/L
  LIPASE: 11 u/L
  PHOSPHORUS: 10.8 mg/dL
  POTASSIUM: 5.91 MEQ/L
  SODIUM: 142.03 MEQ/L
  TOTAL BILIRUBIN: 0.13 mg/dL
  TOTAL PROTEIN: 5.73 G/DL
  URIC ACID: 1.13 mg/dL
[2]
  ABSOLUTE BASOPHIL: 0 CELLS/uL
  ABSOLUTE EOSINOPHIL: 0 CELLS/uL
  ABSOLUTE LYMPHOCYTE: 9108 CELLS/uL
  ABSOLUTE MONOCYTE: 0 CELLS/uL
  ABSOLUTE SEGMENTED NEUTROPHIL: 792 CELLS/uL
  BASOPHIL: 0%
  EOSINOPHIL: 0%
  ERYTHROCYTE COUNT: 5.62 x10E6/uL
  HEMATOCRIT: 33.4%
  HEMOGLOBIN: 13 G/DL
  LEUKOCYTE COUNT: 9.9 x10E3/uL
  LYMPHOCYTE: 92%
  MEAN CORPUSCULAR HEMOGLOBIN: 23.1 pg
  MEAN CORPUSCULAR HEMOGLOBIN CONCENTRATION: 38.9 G/DL
  MEAN CORPUSCULAR VOLUME: 59.4 fL
  MONOCYTE: 0%
  NEUTROPHIL: 8%
  NUCLEATED RED BLOOD CELLS: 0 /100WBC
  PLATELET COUNT: 1418 x10E3/uL
  ALANINE AMINOTRANSFERASE: 36 u/L
  ALBUMIN: 4.1 G/DL
  ALKALINE PHOSPHATASE: 257 u/L
  ASPARTATE AMINOTRANSFERASE: 59 u/L
  BLOOD UREA NITROGEN: 21 mg/dL
  CARBON DIOXIDE: 32 mmol/L
  CHLORIDE: 99 MEQ/L
  CHOLESTEROL: 74 mg/dL
  CREATINE PHOSPHOKINASE: 207 u/L
  CREATININE: 0.14 mg/dL
  GLUCOSE: 142 mg/dL
  LACTATE DEHYDROGENASE: 151 u/L
  LIPASE: 10 u/L
  PHOSPHORUS: 10.8 mg/dL
  POTASSIUM: 5.22 MEQ/L
  SODIUM: 139.9 MEQ/L
  TOTAL BILIRUBIN: 0.1 mg/dL
  TOTAL PROTEIN: 5.4 G/DL
  URIC ACID: 1.3 mg/dL
[3]
  ABSOLUTE BASOPHIL: 0 CELLS/uL
  ABSOLUTE EOSINOPHIL: 0 CELLS/uL
  ABSOLUTE LYMPHOCYTE: 8493.67 CELLS/uL
  ABSOLUTE MONOCYTE: 293 CELLS/uL
  ABSOLUTE SEGMENTED NEUTROPHIL: 980 CELLS/uL
  BASOPHIL: 0%
  EOSINOPHIL: 0%
  ERYTHROCYTE COUNT: 5.59 x10E6/uL
  HEMATOCRIT: 33.5%
  HEMOGLOBIN: 13.07 G/DL
  LEUKOCYTE COUNT: 9.77 x10E3/uL
  LYMPHOCYTE: 87.67%
  MEAN CORPUSCULAR HEMOGLOBIN: 23.37 pg
  MEAN CORPUSCULAR HEMOGLOBIN CONCENTRATION: 39 G/DL
  MEAN CORPUSCULAR VOLUME: 59.97 fL
  MONOCYTE: 3%
  NEUTROPHIL: 9.33%
  NUCLEATED RED BLOOD CELLS: 0 /100WBC
  PLATELET COUNT: 1213 x10E3/uL
  ALANINE AMINOTRANSFERASE: 40.33 u/L
  ALBUMIN: 4.2 G/DL
  ALKALINE PHOSPHATASE: 309.67 u/L
  ASPARTATE AMINOTRANSFERASE: 58.67 u/L
  BLOOD UREA NITROGEN: 18.33 mg/dL
  CARBON DIOXIDE: 25.67 mmol/L
  CHLORIDE: 101 MEQ/L
  CHOLESTEROL: 65.33 mg/dL
  CREATINE PHOSPHOKINASE: 302.33 u/L
  CREATININE: 0.16 mg/dL
  GLUCOSE: 143 mg/dL
  LACTATE DEHYDROGENASE: 125 u/L
  LIPASE: 11.33 u/L
  PHOSPHORUS: 10.47 mg/dL
  POTASSIUM: 5.72 MEQ/L
  SODIUM: 140.6 MEQ/L
  TOTAL BILIRUBIN: 0.17 mg/dL
  TOTAL PROTEIN: 5.47 G/DL
  URIC ACID: 1.43 mg/dL
